Molecular target: T1, Human NPY Y5 receptors (Homo sapiens, UniProt Q15761)
T1 construct: expressed in transfected cells; host or cells: CHO cells (membrane protein)
T1 sequence (Q15761 1-445): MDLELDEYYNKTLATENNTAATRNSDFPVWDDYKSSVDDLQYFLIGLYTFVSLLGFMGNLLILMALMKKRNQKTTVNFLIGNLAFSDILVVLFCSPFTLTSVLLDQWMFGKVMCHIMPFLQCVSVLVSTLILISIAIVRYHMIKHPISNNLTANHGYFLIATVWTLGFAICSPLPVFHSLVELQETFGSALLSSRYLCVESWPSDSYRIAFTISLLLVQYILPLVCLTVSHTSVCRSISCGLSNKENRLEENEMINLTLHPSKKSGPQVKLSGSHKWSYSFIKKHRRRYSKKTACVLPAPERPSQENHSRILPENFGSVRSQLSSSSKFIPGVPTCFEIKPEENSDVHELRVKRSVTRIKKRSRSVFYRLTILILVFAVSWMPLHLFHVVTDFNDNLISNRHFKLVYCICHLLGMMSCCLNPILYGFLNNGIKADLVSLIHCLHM
Experiment: NPY Receptor Binding Assay
Details: binding affinity at the human neuropeptide Y Y5 receptor subtype (hY5), expressed in CHO cells, 125I-peptide YY
Procedure: NPY Receptor Binding Assay
Human NPY Y5 receptors were expressed in CHO cells. Binding assays were performed in 50 mM HEPES, pH 7.2, 2.5 mM CaCl2, 1 mM MgCl2 and 0.1% BSA containing 5–10 μg of membrane protein and 0.1 nM […] in a total volume of 200 μl. Non-specific binding was determined in the presence of 1 μM NPY. The reaction mixtures were incubated for 90 minutes at room temperature then filtered through Millipore MAFC glass fiber filter plates which had been pre-soaked in 0.5% polyethleneimine. The filters were washed with phosphate-buffered saline, and radioactivity was measured in a Packard TopCount scintillation counter.

Row | SMILES | Ki [nM]
1 | CN(C(=O)Nc1cnn(-c2cc(F)cc(F)c2)c1)C1CCN(S(C)(=O)=O)CC1 | 2.4
2 | CN(C(=O)Nc1cnn(-c2cc(F)cc(F)c2)c1)C1CCN(C(=O)OC(C)(C)C)CC1 | 1.8
3 | CN(C(=O)Nc1cnn(-c2cc(F)cc(F)c2)c1)C1CCNCC1 | 276
4 | CN(C(=O)Nc1cnn(-c2cc(F)cc(F)c2)c1)C1CCN(C(=O)C2CC2)CC1 | 1.2
5 | CCS(=O)(=O)N1CCC(N(C)C(=O)Nc2cnn(-c3cc(F)cc(F)c3)c2)CC1 | 0.89

The remaining lines, values ahead:

Row | Ki [nM] | SMILES
6 | 1.6 | CC(=O)N1CCC(N(C)C(=O)Nc2cnn(-c3cc(F)cc(F)c3)c2)CC1
7 | 0.96 | CCC(=O)N1CCC(N(C)C(=O)Nc2cnn(-c3cc(F)cc(F)c3)c2)CC1
8 | 0.7 | CC(C)C(=O)N1CCC(N(C)C(=O)Nc2cnn(-c3cc(F)cc(F)c3)c2)CC1
9 | 1.7 | CC(C)S(=O)(=O)N1CCC(N(C)C(=O)Nc2cnn(-c3cc(F)cc(F)c3)c2)CC1

Source: patent publication US7157472B2, “Neuropeptide Y Y5 receptor antagonists” (Schering Corporation, priority 2002, dated 2007)
